Measured values published in paper PMC6927504, “Screening of House Dust from Chinese Homes for Chemicals with Liver X Receptors Binding Activities and Characterization of Atherosclerotic Activity Using an in Vitro Macrophage Cell Line and ApoE^−/− Mice” (Environmental Health Perspectives, 2019).
Where two headings read alike, the source gives them in different places. Blank lines part the entries; values can stand above or below the compound they belong to.

Experiments:
human LXRα [1] = target: T1, human LXRα (Homo sapiens, UniProt Q13133); assay: cell-based
T1 construct: expressed in transfected cells; host or cells: Saccharomyces cerevisiae Y187
T1 sequence (Q13133 205-447): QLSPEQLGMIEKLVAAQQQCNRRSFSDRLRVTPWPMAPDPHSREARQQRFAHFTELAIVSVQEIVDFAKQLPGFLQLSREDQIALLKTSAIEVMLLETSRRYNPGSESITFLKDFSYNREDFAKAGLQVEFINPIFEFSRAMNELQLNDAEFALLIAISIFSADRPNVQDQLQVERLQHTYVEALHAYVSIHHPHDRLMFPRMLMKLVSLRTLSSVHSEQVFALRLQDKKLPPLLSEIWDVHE

human LXRβ [2] = target: T2, human LXRβ (Homo sapiens, UniProt P55055); assay: cell-based
T2 sequence (P55055 219-460): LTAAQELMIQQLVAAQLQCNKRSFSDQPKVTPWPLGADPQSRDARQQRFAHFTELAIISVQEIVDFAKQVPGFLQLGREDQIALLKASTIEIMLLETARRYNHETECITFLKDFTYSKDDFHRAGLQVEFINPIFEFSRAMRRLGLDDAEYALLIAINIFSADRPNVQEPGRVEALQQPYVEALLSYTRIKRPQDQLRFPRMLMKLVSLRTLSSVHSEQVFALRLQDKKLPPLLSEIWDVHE

ABCG1 = assay: qRT-PCR of LXR target gene ABCG1 in RAW264.7 macrophages; assay type: cell-based; details: TO901317 at 5–100 nM with TPHP 10,000 nM
Protocol: (§1) RAW264.7 cells were obtained from the National Infrastructure of Cell Line Resource of Beijing, China, and the cells used for the experiment were cultured for at least three passages. Dulbecco’s Modified Eagle’s Medium (DMEM)-F12 medium containing 10% fetal bovine serum (FBS) was employed to culture the RAW264.7 cells. RAW264.7 cells were incubated at 37°C with 5% carbon dioxide. The RAW264.7 cells were plated at 2.5×10^5 cells/well (6-well plates), 6.0×10^4 cells/well (24-well plates), and 10^4 cells/well (96-well plates). The RAW264.7 cells were plated and grown overnight; then the medium was removed and fresh DMEM-F12 contained with 0.1% DMSO (control; n=3 ) or TPHP at the concentrations of 1–20,000 nM ( n=3 per group) was added. […] Then the cells were used for the quantitative reverse transcription (qRT)-PCR, cellular cholesterol efflux assay, and foam cell formation experiment.
(§2) Total RNA was isolated from RAW264.7 cells and mouse peritoneal macrophages using TRIzol reagent according to the manufacturer’s instructions. Then a Nanovue Plus™ spectrophotometer (GE Healthcare Life Science) was used to analyze the concentration, quality, and purity of the RNA. Total RNA ( 1μg ) was mixed with oligo deoxythymine (dT) ( 1μL ) at 70°C for 5 min and then combined with a mixture containing Moloney murine leukemia virus (MMLV) reverse transcriptase ( 1μL ), deoxy-ribonucleoside triphosphate (dNTP) ( 1.25μL ), Recombinant RNasin® Ribonuclease Inhibitor (Promega) ( 0.65μL ), and MMLV buffer ( 5μL ) at 42°C for 60 min. The SYBR® Green PCR Kit (TOYOBO) was used for RT-PCR analysis. Real-time fluorescence detection was performed using the StepOnePlus™ sequence detection system (Applied Biosystems). […] The following primers were designed and purchased from Sangon Biotech:
(§3) • actin: 5′-[…]-3′ and 5′-[…]-3′ ATP-binding cassette transporter A1 (ABCA1): 5′-[…]-3′ and 5′-[…]-3′ • ATP-binding cassette transporter G1 (ABCG1): 5′-[…]-3′ and 5′-[…]-3′.

human LXRα [3] = target: T3, human LXRα (Homo sapiens, UniProt Q13133); assay type: binding
T3 construct: the full-length human LXRα gene was amplified by polymerase chain reaction (PCR); made in house; host or cells: E. coli BL21
T3 sequence (Q13133 1-447): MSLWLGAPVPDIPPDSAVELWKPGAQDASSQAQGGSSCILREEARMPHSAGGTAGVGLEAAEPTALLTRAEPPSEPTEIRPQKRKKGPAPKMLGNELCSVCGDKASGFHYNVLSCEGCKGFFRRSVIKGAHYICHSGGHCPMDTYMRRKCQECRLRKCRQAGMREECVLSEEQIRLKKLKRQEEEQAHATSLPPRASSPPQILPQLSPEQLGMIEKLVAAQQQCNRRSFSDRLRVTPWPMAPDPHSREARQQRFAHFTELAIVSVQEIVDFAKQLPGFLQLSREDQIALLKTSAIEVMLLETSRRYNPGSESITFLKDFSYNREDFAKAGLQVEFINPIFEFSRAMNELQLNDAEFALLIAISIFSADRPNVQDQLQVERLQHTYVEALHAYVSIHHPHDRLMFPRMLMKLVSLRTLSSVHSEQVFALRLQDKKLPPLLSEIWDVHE

ABCA1 = assay: qRT-PCR of LXR target gene ABCA1 in RAW264.7 macrophages; assay type: cell-based; details: TO901317 at 5–100 nM with TPHP 10,000 nM
Protocol: as §1, §2, §3

atherosclerotic mice = tested on: atherosclerotic mice; set-up: method as in Joseph et al. 2002; details: ref Joseph et al. 2002; cited from earlier work
human LXRβ [4] = target: T2, human LXRβ; assay: Yeast two-hybrid assay (LXRβ LBD with coactivator TIF2, β-galactosidase readout)
[5] = dust standard reference material SRM2585
[6] = range over indoor dust samples (Table S4)

Compound: CCOC(=O)c1ccc(CN(Cc2ccc(-c3cccc(S(C)(=O)=O)c3)cc2)S(=O)(=O)c2c(C)cc(C)cc2C)o1 [SR9238, reference compound]
IC50 (human LXRα [1]; read-out: IC50 for LXRα (antagonist activity)): 0.825 µM
IC50 (human LXRβ [2]): 0.446 µM

Average percentage pulled down of the spiked concentration (human LXRα [3]; His-TF-LXRα group): 89%
Average percentage pulled down of the spiked concentration (human LXRα [3]; control group (His-TF protein without LXRα)): 10%
Recovery in pull-down by recombinant LXRα (human LXRα [3]; spiked at 0.25 μg/L): 100%±3%
Recovery in pull-down by recombinant LXRα (human LXRα [3]; spiked at 2.5 μg/L): 85%±5%
Recovery in pull-down by recombinant LXRα (human LXRα [3]; spiked at 25 μg/L): 80%±0.7%
Recovery in pull-down by recombinant LXRα (human LXRα [3]; spiked at 250 μg/L): 92%±4%
Compound: O=S(=O)(c1ccccc1)N(CC(F)(F)F)c1ccc(C(O)(C(F)(F)F)C(F)(F)F)cc1 [TO901317]
ABCG1 gene expression in cells co-exposed to TPHP, versus TPHP alone (ABCG1): dose-dependently higher
ABCA1 gene expression in cells co-exposed to TPHP, versus TPHP alone (ABCA1): dose-dependently higher

Compound: O=C(O)Cc1cccc(OCCCN(Cc2cccc(C(F)(F)F)c2Cl)CC(c2ccccc2)c2ccccc2)c1 [GW3965]
Atherosclerotic plaques (atherosclerotic mice): promoted regression of atherosclerotic plaques
Foam cell formation (atherosclerotic mice): inhibited foam cell formation

Compound: CCCCC(CC)COP(=O)(Oc1ccccc1)Oc1ccccc1 (centres unmarked) [EHDPP, 2-ethylhexyl diphenyl phosphate]
IC50 (human LXRα [1]): 5.69 µM
Contribution to the LXRα-antagonist activity of SRM2585 (human LXRα [1]; [5]): 3.01%
Share of the LXRα-antagonist activity of indoor dust explained by the chemical (human LXRα [1]; [6]): 0.01–25.02%
Contribution to the LXRβ-antagonist activity of SRM2585 (human LXRβ [4]; [5]): 1.55%
Share of the LXRβ-antagonist activity of indoor dust explained by the chemical (human LXRβ [4]; [6]): 0.01–22.92%
IC50 (human LXRβ [2]): 2.17 µM

Compound: O=[N+]([O-])c1ccc(O)cc1 [PNP, p-nitrophenol]
EC50 (human LXRα [1]; agonist mode, β-galactosidase activity, n=3): 14 µM
EC50 (human LXRβ [4]): 15.1 µM
